Bounds are passed on as bounds.

For assay [1], the system named is p-STAT3 (Tyr705) in B16 cells. In words: p-STAT3 immunoblotting in B16 cells. The format is cell-based, murine. As to conditions: 4 hours, 5 and 10 μM (FIG. 3A). As for the experimental part: Immunoblotting analysis. Murine melanoma B16 cells and splenocytes were used for protein isolation and immunoblotting analysis as described below. B16 cells were seeded at a density of 2×10^6 cells/well in 6-well culture plates and incubated at 37° C., in an atmosphere containing 5% CO2, with the RPMI 1640 medium overnight. Afterward, B16 cells were cultured in the absence or presence of WP1193 (5 μM, 10 μM). After 3.5 hours, the B16 cells were further cultured in the absence or presence of 20 ng/ml of IFN-α for 30 minutes. For the splenocyte preparation, spleens from two 4- to 6-week-old female mice were harvested and disassociated into a single cell suspension. […] The supernatants were collected and quantified for protein content. […]
Autoradiography of the membranes was performed using Amersham ECL Western blotting detection reagents (Amersham Biosciences). The densities of the protein bands compared with the β-actin protein control were measured with the Image J program provided by the NIH.
In this experiment, B16 cells and splenocytes isolated from C57BL/6J mice and were incubated with either the medium, medium supplemented with titrated WP1193, medium supplemented with IFN-α, or medium supplemented with both IFN-α and WP1193. […] Semi-quantitative densitometry was used to determine the relative levels of p-STAT3 to STAT3 and β-actin.
(Immunoblotting shows a protein as a band on a membrane.)

Assay [2] relates to intracerebral B16 melanoma. In words: Survival of mice with established intracerebral B16 melanoma. It is filed as in vivo, C57BL/6J mice. As to conditions: for median overall survival: WP1193 30 mg/kg oral gavage (sub-therapeutic) from day 3, IFN-α plasmid i.v. day 5, control 17 days; for increase in median survival: versus control (17 days). The source says:
For the in vivo experiments, we used 4- to 6-week-old female C57BL/6J mice maintained in the M. D. Anderson Cancer Center Isolation Facility in accordance with Laboratory Animal Resources Commission standards and conducted according to an Institutional Animal Care and Use Committee-approved protocol, 08-06-11831. A mouse was euthanized when it became unable to reach food or water. To induce intracerebral tumors in C57BL/6J mice, B16 cells were collected in logarithmic growth phase, washed twice with PBS, mixed with an equal volume of 10% methyl cellulose and RPMI 1640 medium and loaded into a 250-μl syringe (Hamilton, Reno, Nev.) with an attached 25-gauge needle. The needle was positioned 2 mm to the right of bregma and 4 mm below the surface of the skull at the coronal suture using a stereotactic frame (Kopf Instruments, Tujunga, Calif.). The intracerebral tumorigenic dose for the B16 cells was 5×10^2 in a total volume of 5 μl.
pORF.IFN-α (IFN-α) plasmid was obtained from Invivogen (29). Hydrodynamic gene transfer (HGT) consisted of a single intravenous (i.v.) injection of 3 μg endotoxin-free pORF plasmid encoding murine IFN-α or pORF control plasmid DNA (InvivoGen, San Diego, Calif.) in 2 ml of saline as previously described. Liu F, Song Y, Liu D, Hydrodynamics-Based Transfection In Animals By Systemic Administration Of Plasmid DNA, Gene Therapy 1999; 6:1258-66. […] Sikora A G, Jaffarzad N, Hailemichael Y, Gelbard A, Stonier S W, Schluns K S, Frasca L, Lou Y, Liu C, Andersson H A, Hwu P, Overwijk W W, IFN-A Enhances Peptide Vaccine-Induced CD8+ T Cell Numbers, Effector Function, And Antitumor Activity, J Immunol 2009, 182:7398-407. The STAT3 inhibitor, WP1193, was synthesized and supplied by Dr. Priebe (M. D. Anderson). WP1193, a third-generation analogue inhibitor of the p-STAT3 pathway, was dissolved in a mixture of 20 parts dimethylsulfoxide (DMSO) to 80 parts polyethylene glycol (PEG) 300 (Sigma-Aldrich, St Louis, Mo.) at titered concentrations and delivered in a final volume of 100 μL. Prior to use, WP1193 was stored as a lyophilized powder at 4° C.
Treatment for the established intracerebral tumors was with WP1193 (starting on day 3) and/or IFN-α (starting on day 5) after B16 tumor cell challenge. Mice were injected intravenously (i.v.) with 2 ml (3 μg) of IFN-α plasmid in saline once. Mice were treated with a sub-therapeutic dose of 30 mg/kg of WP1193 by oral gavage (o.g.) in a vehicle of DMSO/PEG300 (20 parts/80 parts) on […], on a […]. schedule (5 days on, 2 days off). When mice were treated in the therapeutic range of 40 mg/kg, >80% of animals survived long-term (more than 70 days) and synergy with IFN-α could not be assessed. Ten mice per experimental group were used, including treatment with the DMSO/PEG300 vehicle alone in the control group.
Kaplan-Meier product-limit survival probability estimates of overall survival were calculated and log-rank tests were performed to compare overall survival between treatment groups and the control arm. Kaplan E L, Meier P., Nonparametric Estimation From Incomplete Observations, J Am Stat Assoc 1958; 53:457-81; Mantel N., Evaluation Of Survival Data And Two New Rank Order Statistics Arising In Its Consideration, Cancer Chemother Rep 1966; 50:163-70 Ex-vivo or in vitro data are presented as means±standard errors (SEs) of three repeated experiments. Student's t test was performed. A P value below 0.05 was considered statistically significant. […]

Regarding `N#C/C(=C\c1cccc(Br)n1)C(=O)N[C@H](c1ccccc1)C1CC1` [WP1193, (S,E)-3-(6-bromopyridin-2-yl)-2-cyano-N-(cyclopropyl(phenyl)methyl)acrylamide], in assay [1], the “phosphorylation of p-STAT3” value is “inhibits the phosphorylation of p-STAT3”. Moreover, in assay [2], the median overall survival was 18.5 days and the “increase in median survival” value was 9%. Also, the “animals surviving long-term (more than 70 days)” value in assay [2] (therapeutic range of 40 mg/kg) is reported as greater than 80%.
Consider IFN-α, for which, in assay [2], the median overall survival amounted to 27.5 days and the “increase in median survival” value was 62%.
